Data on four compounds can be found in patent US20210144999A1, “COMPOSITIONS COMPRISING HYDROXYCINNAMIC ACID AND RELATED CONJUGATES, ANALOGUES AND DERIVATIVES, AND METHODS OF USE THEREOF” (YEDA RESEARCH AND DEVELOPMENT CO. LTD., priority 2017, published 2021).

Experiment [1] deals with pks operon (PpksC promoter). Put plainly: pks expression, PpksC-lux luminescence reporter. Type of experiment: cell-based, B. subtilis. The following applies: library of 400 plant metabolites, growth-normalized RLU. The protocol:
FIGS. 23A-23B: An ester of caffeic acid induces antibiotic production. (FIG. 23A) Scheme of a screen of plant metabolites for pks induction. (FIG. 23B) Growth-normalized RLU of PpksC-lux strain treated with a small molecule library representative as in A, compared with the treatment in root exudate.
(§1) pks expression analysis. pks expression in the presence of plant metabolites was analyzed as following: the luminescence intensity of cells harboring a PpksC-lux transcriptional promoter fusion was analyzed. Cells were grown to a mid-logarithmic phase, diluted 1:100 in 150 μl liquid MSgg medium, either with or without root exudate. Cells were grown in a 96-well microplate (Thermo Scientific, Roskilde, Denmark) with agitation at 30° C. for 16 h in a microplate reader (Synergy 2, BioTek, Winooski, Vt., USA) measuring luminescence intensity and the optical density at 600 nm (OD600) every 15 min.
A library of 400 plant metabolites was screened for pks induction using B. subtilis cells carrying the PpksC-lux construct (FIG. 23A).

The test system of experiment [2] is B. subtilis biofilms. Kind of experiment: B. subtilis biofilm stability / maintenance in vitro. Format: cell-based. The following applies: for effect on beneficial biofilms (stability / maintenance), single agent: in vitro, biofilms at day 1 and day 5. On the procedure: Shown are biofilms of treated and untreated B. subtilis biofilms.
Strains and Media All experiments were performed with B. subtilis NCBI3610 and its derivatives. Assays were carried out with the biofilm-inducing medium, MSgg: 5 mM potassium phosphate, 100 mM MOPS (pH 7), 2 mM MgCl2, 50 μM MnCl2, 1 μM ZnCl2, 2 μM thiamine, 0.5% glycerol, 0.5% glutamate, 50 μg/ml tryptophan, 50 μg/mlphenylalanine 50 μg/ml threonine, 700 μM CaCl2, and 50 μM (for growth assays) or 125 μM (for biofilm assays) FeCl3^1. A solid MSgg medium was obtained by adding Bacto agar (Difco) to a final concentration of 1.5%. When necessary, selective medium was prepared with LB-agar or LB broth, supplemented with: 100 μg/ml ampicillin (amp) (AG Scientific), or 10 μg/ml kanamycin (kan) (AG Scientific), or 10 μg/ml chloramphenicol (cam) (Amresco), or 10 μg/ml tetracycline (tet) (Amresco), or 100 μg/ml spectinomycin (spec) (Tivan Biotech), or 1 μg/mlerythromycin (erm) (Amresco)+25 μg/ml lincomycin (linc) (Sigma Aldrich).

The subject of experiment [3] is pks operon (PKS promoter). Put plainly: pks expression, amyE::Ppks-gfp fluorescence reporter. Format: cell-based, B. subtilis. The protocol: FIGS. 3A:-3H Specialized host-derived metabolites increase PKS activity while B. subtilis biofilms increase plant Induced Systemic Resistance (ISR). (FIG. 3A) Quantification of pks expression (amyE::Ppks-gfp) in B. subtilis over time in response to different hydrophobicity fractions of plant root exudate. Expression was measured using fluorescent intensity of GFP fused to the PKS promoter. Color-coded curves indicate ascending methanol concentrations used for consecutive washings of root exudate from Silica-based bonded phase with strong hydrophobicity; darker curve indicates the first flow-through of the loaded root exudate from the silica cartridge. Orange curve indicate the pks expression kinetics without treatment. (FIG. 3B) Quantification of pks expression (amyE::Ppks-gfp) in B. subtilis over time in response to plant root metabolites. Expression was measured by fluorescent intensity of GFP fused to the PKS promotor. Color-coded curves indicate 5, 50,100 and 150 μM of the four metabolites: Methyl β-D-Glucopyranosid (upper left), Chromone (upper right), Chlorogenic acid (lower left) and Caffeic acid (lower right). Orange curve indicate the pks expression kinetics without treatment. (FIG. 3C) Fluorescence imaging of pks expression (amyE::Ppks-gfp) in a single cell resolution 5 h after B. subtilis was grown in MSgg (control) liquid culture supplemented with 150 μM of Chlorogenic acid and Caffeic acid. Images presented as over-layered channels of TL-phase and EGFP. Scale bar—[…]. […] Pathogenicity was measured in E. sativa seedlings whose roots were inoculated with B. subtilis, S. plymuthica and their combination in ratios of 1:1, 100:1 and 1:100. […]
Fluorescence microscopy. […] Cells were s visualized by fluorescence microscopy; Phase contrast and signal from Ppks-gfp (green) are shown. Fluorescent cell count and intensity levels were recorded for 10 fields in each treatment, at least 1000 cells were quantified for each treatment.

Experiment [4] has as its system pseudomonas syringae pv. Tomato. Kind of experiment: Tomato plant survival after pseudomonas syringae pv. Tomato infection (Example 9). Format: in vivo, tomato plants. The settings on record: 5 μM caffeic acid or 5 μM putrescine or 2.5 μM each; putrescine read 28 days after infection. On the procedure: Bacillus strain B. subtilis 3610 (B.S) are maintained on LB plates. 1000 cells of B.S. with or without the addition of 5 μM of caffeic acid or 5 μM of putrescine, or 2.5 μM each of caffeic acid and putrescine are added to tomato plants grown on agrophonic beads. Plants are incubated at 28±2° C. for 15 days.

For experiment [5], the system named is B. subtilis 3610 biofilms. Kind of experiment: Biofilm maintenance (% coverage) on tomato roots in planta. Format: in vivo. The following applies: 1000 B. subtilis cells with or without materials, tomato plants on agrophonic beads. The protocol:
(FIGS. 17A-17C) B. subtilis 3610 constantly expressing the fluorescent protein mKate2 was maintained on LB plates. 1000 cells either applied or non-applied with the materials indicated were added to tomato plants grown on agrophonic beads. % coverage was calculated based on quantifying 20 fields from the fluorescent microscope using Image J. Three replications were maintained for each assay. SD represents the average of three independent experiments.

Experiment [6] concerns B. subtilis. Put plainly: Planktonic growth (OD600) in liquid MSgg. Format: cell-based. The settings on record: caffeic acid at indicated concentrations, 30° C. The protocol: Planktonic growth of wild type grown at 30° C. with shaking in liquid MSgg medium without (untreated) or caffeic acid at indicated concentrations was monitored by measuring OD600in a microplate reader. Results are averages of four wells within one experiment and their standard deviations. A representative of three independent experiments is shown.
as §1

Entries after “also recorded” stand apart in the source; their conditions may differ.

`O=c1ccc2cc(O)c(O)cc2o1` [aesculetin]: the “pks activation in screen of plant metabolites” value in experiment [1] is recorded as “activatespks operon; also recorded: induced pks activation”.

Turning to `O=C(O)/C=C/c1ccc(O)c(O)c1` [caffeic acid], the “duration of increased stability of bacterial beneficial biofilms” value in experiment [2] (caffeic acid alone, 100 μM, laboratory conditions) is “up to 4 days”. The “effect on beneficial biofilms (stability / maintenance), single agent” value in experiment [2] is “can promote biofilm maintenance”. Also, in experiment [3] (150 μM, 5 h, single cell fluorescence), the “number of cells expressing the pks operon” value is “induced the number of cells expressing the pks operon”. In experiment [3] (150 μM, single cell fluorescence, versus control), the “average pks expression level” value is given as “comparable to the control”. Also, in experiment [3] (B. subtilis amyE::Ppks-gfp, liquid MSgg, 5, 50, 100 and 150 μM), the “pks (PKS) expression” value was “activatespks operon; also recorded: significantly enhanced PKS expression”. Moreover, in experiment [4], the “tomato plant survival after pseudomonas syringae pv. Tomato infection” value is “increased tomato plant survival”. For the same compound, the results for the “protective biofilms in planta on tomato roots (% coverage)” value in experiment [5] and in experiment [5] (listed as Caffeic acid) were “sustained protective biofilms in planta on tomato roots” and “can promote biofilm maintenance”, respectively. Further, the “planktonic growth of B. subtilis” value in experiment [6] is listed as “no impact on planktonic growth; also recorded: little or no effect on the growth of B. subtilis”.

Consider `O=C(/C=C/c1ccc(O)c(O)c1)O[C@@H]1C[C@](O)(C(=O)O)C[C@@H](O)[C@H]1O` [chlorogenic acid], for which the “pks activation in screen of plant metabolites” value in experiment [1] is recorded as “activatespks operon; also recorded: induced pks activation”.

Consider `NCCCCN` [putrescine], for which, in experiment [2], the “effect on beneficial biofilms (stability / maintenance), single agent” value is given as “little or no biological effect”. Besides, the “tomato plant survival after pseudomonas syringae pv. Tomato infection” value in experiment [4] is “little or no biological effect on tomato plant survival”.
